Measured values as given in patent US20160084855A1, “Compositions and Methods for Modulation and Detection of Immune and Inflammatory Responses” (UNIVERSITY OF CONNECTICUT, priority 2013, published 2016).
Values joined by “and” are separate entries in the source; they are usually repeats but may differ in a detail not shown here. Identical values can stand only once.

What was measured:
[1] = system: spinal cord CD4+ and Foxp3+ T cells; assay: Flow cytometry of spinal cord mononuclear cells of mice with EAE; type: in vivo, mouse
Description: Spinal cord mononuclear cells were derived as previously described in Korn et al. “Myelin-specific regulatory T cells accumulate in the CNS but fail to control autoimmune inflammation” Nat. Med. 13:423-431 (2007) and stained for CD4 (FITC α-CD4 (GK1.5) BD Pharmingen) and Foxp3 (APC α-FoxP3 (FJK-16s; E-Bioscience), or stimulated in culture for 4 hrs with phorbol myristyl acetate and ionomycin prior to staining for Thy1.2 (PE-Cy7 anti-CD 90.2; E-Biosciences) and intracellular IFNγ (APC αIFNγ; BD Pharmingen) and IL-17 (Alexa Fluor 488 α-IL-17A; BD Pharmingen).
To characterize mechanisms by which PE DHC may enhance autoimmune disease in vivo, the experimental studies tested whether the PE DHC-mediated enhancement of EAE was associated with alterations in T cell populations at a site of disease. WT mice were immunized with the usual EAE-inducing protocol and treated on Day 0 with EtOH or PE DHC (250 ng i.p.). Within 5 days after onset of EAE, mice were sacrificed and exsanguinated, their spinal cords were removed, and the mononuclear cells were derived from the spinal cords. These cells were analyzed directly for CD4 and Foxp3 expression by flow cytometry or were stimulated with PMA and ionomycin for 4 hours and then, gating on Thy1.2+ cells, analyzed for intra-cellular interferon gamma (IFNγ) and IL-17 by flow cytometry. […] However, the percentage of CD4+ T cells within the total mononuclear cell populations derived from the spinal cords of PE DHC-treated mice was, on average, greater than the percentage in EtOH-treated mice (as illustrated in Table 2). […] The mean percentage of spinal cord cells that were CD4+ was 41% in EtOH-treated mice and, on average, 6.7% of these were Foxp3+. In contrast, the mean percentage of spinal cord cells that were CD4+ T cells was 52% in PE DHC-treated mice and, on average, 4.3% of these were Foxp3+. It has been reported in Korn et al. “Myelin-specific regulatory T cells accumulate in the CNS but fail to control autoimmune inflammation” Nat. Med. 13:423-431 (2007) that the percentage of spinal cord CD4+ Foxp3+ T cells increased as the disease progressed. […] Based on this observation, it was unlikely that the decrease in the percentage of Foxp3+ in PE-DHC-treated mice was related to differences in disease duration.

[2] = Recovery of 3-OH isoC17:0 fatty acid from brains of mice with EAE (GC-MS); type: in vivo, mouse; details: mice that received PE DHC and had a disease score greater than 3.0, versus PBS or EtOH controls
Description: Mice treated with PBS, EtOH or with 25 ng, 250 ng, or 2.5 μg PE DHC were sacrificed after day 20 post-EAE immunization. The brains were removed and extracted for phospholipids according to the method of Bligh and Dyer as previously described in Nichols “Distribution of 3-hydroxy iC17:0 in subgingival plaque and gingival tissue samples: Relationship to adult periodontitis” Infect. Immun. 62:3753-3760 (1994). Lipid extracts were dissolved in hexane isopropanol:water (6:8:0.75, v/v/v/) and three 0.5 mg aliquots were dispensed into glass tubes supplemented with 30 ng of isobranched C20:0. […] Lipids were treated to form pentofluorobenzyl ester, trimethylsilyl ether derivatives and analyzed by negative ion chemical ionization GC-MS, as described in Nichols (1994). Fatty acid recovery was quantified by selected ion monitoring for characteristic fatty acid negative ions. The data were expressed as picograms of 3-OH isobranched (iso)C17:0 per 0.5 mg of total brain lipid extracted.
The cumulative disease index (CDI) was obtained by summing the daily average disease scores through Day 20. A mean of these daily disease scores (Mean Daily Disease) (+/−SEM) was calculated based on the 20 days of observation. […] Bacterial fatty acid levels in brain lipid extracts for each treatment group were evaluated using least squares linear regression analysis that included calculation of correlation coefficients. […]

bone marrow DCs (BMDCs) = assay: Stimulation of bone marrow dendritic cells, IL-6 ELISA and surface activation markers; type: cell-based, mouse; details: for IL-6 secretion: plate-bound LPS 1 μg, MMP 10 μg, PE DHC 2.5 μg, 18 hrs
Description: Bone marrow cells from C57BL/6 and TLR2^−/− mice were cultured at 2×10^5 cells/ml in RPMI containing 10% FCS, 2-ME, and 20 ng/ml recombinant murine GM-CSF for 9 days. Bone marrow DCs (BMDCs) were harvested at Day 9 and were greater than 80% CD11c+. LPS (1 μg), MMP (10 μg) (a bacterial lipoprotein and known TLR-2 ligand (Bachem H-9460), PE DHC (2.5 μg) or 70% EtOH, all in 20 ul volumes, were allowed to dry in the wells of a 24-well plate overnight prior to the addition of BMDCs. BMDCs were cultured in the ligand-bound 24-well plates at 1×10^6 cells/ml in RPMI containing GM-CSF. After 18 hrs, culture supernatants were harvested and tested for IL-6 via ELISA.
The effects of PE DHC on antigen presenting cell (APC) activation in vitro were examined Dendritic cells (BMDCs) (>85% CD11c+) were derived from the bone marrow of WT or TLR2^−/− mice and cultured either alone or with EtOH, LPS, MMP (a TLR2 ligand), or PE DHC. After 18 hrs supernatants were assayed for IL-6. […] BMDCs were also assayed for expression of the surface activation markers B7.2 and MHC class II.

Question: For “phosphoethanolamine dihydroceramide [PE DHC]”, which “Total number of mononuclear cells obtained from the spinal cords, versus EtOH” value ([1]; WT mice, PE DHC 250 ng i.p.) is on record?
Answer: no significant difference

Question: And the “Percentages of spinal cord CD4+ T cells staining for intra-cellular IFNγ or IL-17, versus EtOH” value ([1]; WT mice, PE DHC 250 ng i.p., PMA and ionomycin 4 hours)?
Answer: not significantly different

Question: What about the “DISEASE GRADE” value ([1]; individual WT mice at sacrifice, PE DHC 250 ng i.p. Day 0) of the same substance?
Answer: 3.3 (2×) and 3.5 and 2.9 (2×) and 3.0

Question: And the “% CD4+ in spinal cord” value ([1]; individual WT mice, PE DHC 250 ng i.p. Day 0, 1-5 days after onset of EAE, of total mononuclear cells)?
Answer: 72.00% and 38.00% and 68.86% and 49.54% and 40.83% and 46.50%

Question: What about the “% Foxp3+ in spinal cord” value ([1]; individual WT mice, PE DHC 250 ng i.p. Day 0, after gating on CD4+ T cells) of the same substance?
Answer: 4.53% and 7.52% and 2.75% and 3.45% and 3.21% and 4.27%

Question: What about the “Brain level of 3-OH isoC17:0 fatty acid” value [2] of the same substance?
Answer: higher levels of 3-OH isoC17:0 fatty acid

Question: And the IL-6 secretion (bone marrow DCs (BMDCs); TLR2−/− BMDCs)?
Answer: did not result in IL-6 secretion

Question: And the IL-6 secretion (bone marrow DCs (BMDCs); WT BMDCs)?
Answer: levels of IL-6 secretion that were almost equivalent to that seen with LPS

Question: What about the “Expression of surface activation markers B7.2 and MHC class II” value (bone marrow DCs (BMDCs); WT and TLR2−/− BMDCs) of the same substance?
Answer: increased MHC II and B7.2 expression on WT but not TLR2^−/− BMDCs
